These results are taken from ChEMBL document CHEMBL2203152, “Systematic in vivo screening of a series of 1-propyl-4-arylpiperidines against dopaminergic and serotonergic properties in rat brain: a scaffold-jumping approach” (J Med Chem, 2012).

Assay [1] relates to Rattus norvegicus. Description: Reduction in spontaneous locomotor activity in Sprague-Dawley rat at 6.4 umol/kg, sc measured after 15 to 60 mins relative to saline-treated control. The assay is classed as functional. On the set-up: scale not given: the % may be the effect or the level left.
Assay [2] deals with Rattus norvegicus. Description: Decrease in 5-HIAA level in Sprague-Dawley rat striatum at 6.4 umol/kg, sc by HPLC analysis relative to saline-treated control. It is filed as functional. On the set-up: scale not given: the % may be the effect or the level left.
For assay [3], the system named is Rattus norvegicus. Description: Increase in DOPAC level in Sprague-Dawley rat striatum at 6.4 umol/kg, sc by HPLC analysis relative to saline-treated control. The assay is classed as functional.
Assay [4] has as its system Rattus norvegicus. Description: Increase in DOPAC level in sc dosed Sprague-Dawley rat striatum by HPLC analysis. The assay is classed as functional.
The test system of assay [5] is Rattus norvegicus. Description: Decrease in 5-HIAA level in Sprague-Dawley rat striatum at 25 umol/kg, sc by HPLC analysis relative to saline-treated control. Further details: scale not given: the % may be the effect or the level left. It is filed as functional.
Assay [6] has as its system Rattus norvegicus. Description: Increase in DOPAC level in Sprague-Dawley rat striatum at 25 umol/kg, sc by HPLC analysis relative to saline-treated control. The assay is classed as functional.
Assay [7] deals with Rattus norvegicus. Description: Reduction in spontaneous locomotor activity in Sprague-Dawley rat at 25 umol/kg, sc measured after 15 to 60 mins relative to saline-treated control. It is filed as functional. On the set-up: scale not given: the % may be the effect or the level left.
Assay [8] concerns Rattus norvegicus. Description: Reduction in spontaneous locomotor activity in Sprague-Dawley rat at 100 umol/kg, sc measured after 15 to 60 mins relative to saline-treated control. It is filed as functional. On the set-up: scale not given: the % may be the effect or the level left.
For assay [9], the system named is Rattus norvegicus. Description: Increase in DOPAC level in Sprague-Dawley rat striatum at 100 umol/kg, sc by HPLC analysis relative to saline-treated control. It is filed as functional.
Assay [10] has as its target T1, 5-hydroxytryptamine receptor 1A (Homo sapiens) (UniProt P08908).
T1 sequence (whole entry): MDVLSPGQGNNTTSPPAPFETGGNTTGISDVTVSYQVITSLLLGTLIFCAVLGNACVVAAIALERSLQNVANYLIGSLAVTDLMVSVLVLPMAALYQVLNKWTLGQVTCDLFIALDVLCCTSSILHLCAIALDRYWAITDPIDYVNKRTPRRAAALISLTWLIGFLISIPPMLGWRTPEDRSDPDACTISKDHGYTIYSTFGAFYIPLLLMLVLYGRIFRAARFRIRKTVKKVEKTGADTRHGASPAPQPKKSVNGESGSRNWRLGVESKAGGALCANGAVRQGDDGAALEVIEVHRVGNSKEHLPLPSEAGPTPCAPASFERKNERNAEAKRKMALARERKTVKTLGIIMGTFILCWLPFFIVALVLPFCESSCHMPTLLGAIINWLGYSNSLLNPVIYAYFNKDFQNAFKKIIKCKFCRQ
Description: Displacement of [3H]8- OH-DPAT from human 5-HT1A at 1 uM by CEREP assay.

Assay [11] deals with Sodium-dependent dopamine transporter (Homo sapiens) (UniProt Q01959). Nature of the assay: Displacement of [3H]BTCP from human DAT at 1 uM by CEREP assay.
Chain of Sodium-dependent dopamine transporter (Homo sapiens) (Q01959 whole entry): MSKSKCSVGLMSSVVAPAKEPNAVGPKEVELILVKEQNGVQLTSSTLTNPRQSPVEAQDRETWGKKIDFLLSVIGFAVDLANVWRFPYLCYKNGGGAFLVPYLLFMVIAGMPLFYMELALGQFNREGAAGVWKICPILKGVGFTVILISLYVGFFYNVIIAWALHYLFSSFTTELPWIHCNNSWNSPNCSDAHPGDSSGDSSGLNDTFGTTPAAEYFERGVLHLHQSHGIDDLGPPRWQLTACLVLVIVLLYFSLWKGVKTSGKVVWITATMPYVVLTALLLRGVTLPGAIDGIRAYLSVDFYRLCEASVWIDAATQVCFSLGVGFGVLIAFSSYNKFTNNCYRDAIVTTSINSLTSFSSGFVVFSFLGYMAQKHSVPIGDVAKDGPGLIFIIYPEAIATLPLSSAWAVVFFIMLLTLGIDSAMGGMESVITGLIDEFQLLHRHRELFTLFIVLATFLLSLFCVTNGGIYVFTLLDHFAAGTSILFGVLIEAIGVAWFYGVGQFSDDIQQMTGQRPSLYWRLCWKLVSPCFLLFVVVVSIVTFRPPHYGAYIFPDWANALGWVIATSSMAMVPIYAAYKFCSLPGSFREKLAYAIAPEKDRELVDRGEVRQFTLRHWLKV
In assay [12] the test system is Rattus norvegicus. Nature of the assay: Decrease in 5-HIAA level in Sprague-Dawley rat striatum at 100 umol/kg, sc by HPLC analysis relative to saline-treated control. On the set-up: scale not given: the % may be the effect or the level left. The assay is classed as functional.
Assay [13] addresses Sodium-dependent serotonin transporter (Homo sapiens, UniProt P31645). Nature of the assay: Displacement of [3H]imipramine from human SERT expressed in CHO cells by competition binding assay. The assay is classed as cell-based. The following applies: read-out: Ki(app). Background: Displacement assays read how much labelled ligand stays bound in the presence of the test substance.

Assay [14] concerns the target T2, D(2) dopamine receptor (Homo sapiens, UniProt P14416). Description: Displacement of [3H]7-OH-DPAT from human high affinity Dopamine D2S receptor by competition binding assay.
In assay [15] the target is T3, Amine oxidase [flavin-containing] A (Rattus norvegicus, UniProt P21396).
T3 sequence (P21396 whole entry): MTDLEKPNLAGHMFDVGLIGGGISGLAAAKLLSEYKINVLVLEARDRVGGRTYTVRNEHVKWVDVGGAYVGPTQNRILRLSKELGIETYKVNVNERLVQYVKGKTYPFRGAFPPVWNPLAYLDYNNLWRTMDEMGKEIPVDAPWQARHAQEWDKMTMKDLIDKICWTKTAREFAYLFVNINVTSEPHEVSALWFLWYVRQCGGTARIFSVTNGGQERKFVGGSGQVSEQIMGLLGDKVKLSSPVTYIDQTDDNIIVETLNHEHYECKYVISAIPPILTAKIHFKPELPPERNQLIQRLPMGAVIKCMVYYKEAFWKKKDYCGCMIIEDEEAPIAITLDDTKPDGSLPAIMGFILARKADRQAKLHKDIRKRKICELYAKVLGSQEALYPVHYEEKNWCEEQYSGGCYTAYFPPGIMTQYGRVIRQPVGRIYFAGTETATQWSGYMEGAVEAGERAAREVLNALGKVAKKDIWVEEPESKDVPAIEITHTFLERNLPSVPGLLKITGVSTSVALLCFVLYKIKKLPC
Description: Displacement of [3H]Ro 41-1049 from MAO-A in rat cerebral cortex by competition binding assay. It is filed as tissue-based. Particulars: read-out: Ki(app).

For assay [16], the target named is T2, D(2) dopamine receptor. Description: Displacement of [3H]methylspiperone from human low affinity Dopamine D2S receptor by competition binding assay.
Assay [17] has as its target D(3) dopamine receptor (Homo sapiens, UniProt P35462). Nature of the assay: Displacement of [3H]7-OH-DPAT from human dopamine D3 receptor at 1 uM by CEREP assay.
Assay [18] deals with T4, D(4) dopamine receptor (Homo sapiens) (UniProt P21917).
T4 sequence (whole entry): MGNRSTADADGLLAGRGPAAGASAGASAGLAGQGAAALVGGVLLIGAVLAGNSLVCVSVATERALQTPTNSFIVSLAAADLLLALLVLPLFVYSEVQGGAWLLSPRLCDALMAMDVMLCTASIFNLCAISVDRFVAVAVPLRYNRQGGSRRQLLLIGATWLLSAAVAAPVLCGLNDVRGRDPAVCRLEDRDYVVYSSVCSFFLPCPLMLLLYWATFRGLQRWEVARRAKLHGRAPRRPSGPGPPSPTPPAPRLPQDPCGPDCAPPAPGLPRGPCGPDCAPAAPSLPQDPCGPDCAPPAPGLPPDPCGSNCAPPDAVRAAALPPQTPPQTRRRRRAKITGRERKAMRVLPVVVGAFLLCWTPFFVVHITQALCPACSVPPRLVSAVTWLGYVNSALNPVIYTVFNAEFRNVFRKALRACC
Nature of the assay: Displacement of [3H]methylspiperone from human dopamine D4 receptor at 1 uM by CEREP assay.

For assay [19], the species on record is Homo sapiens. Description: Selectivity ratio of Ki(app) for human low affinity Dopamine D2S receptor to Ki(app) for human high affinity Dopamine D2S receptor.
Assay [20] deals with Rattus norvegicus. Description: Increase in DOPAC level in Sprague-Dawley rat striatum at 33 umol/kg, sc by HPLC analysis relative to saline-treated control. It is filed as functional.
The test system of assay [21] is Rattus norvegicus. Description: Decrease in 5-HIAA level in Sprague-Dawley rat striatum at 33 umol/kg, sc by HPLC analysis relative to saline-treated control. It is filed as functional. Further details: scale not given: the % may be the effect or the level left.
Assay [22] has as its system Rattus norvegicus. Nature of the assay: Reduction in spontaneous locomotor activity in Sprague-Dawley rat at 33 umol/kg, sc measured after 15 to 60 mins relative to saline-treated control. The assay is classed as functional. On the set-up: scale not given: the % may be the effect or the level left.
The nature of assay [23]: Binding affinity to dopamine receptor.
Assay [24] can be described thus: Binding affinity to 5-HT receptor.

Activity calls are given as the source filed them. No cut-off for these calls is given here.

T2 sequence (P14416 whole entry): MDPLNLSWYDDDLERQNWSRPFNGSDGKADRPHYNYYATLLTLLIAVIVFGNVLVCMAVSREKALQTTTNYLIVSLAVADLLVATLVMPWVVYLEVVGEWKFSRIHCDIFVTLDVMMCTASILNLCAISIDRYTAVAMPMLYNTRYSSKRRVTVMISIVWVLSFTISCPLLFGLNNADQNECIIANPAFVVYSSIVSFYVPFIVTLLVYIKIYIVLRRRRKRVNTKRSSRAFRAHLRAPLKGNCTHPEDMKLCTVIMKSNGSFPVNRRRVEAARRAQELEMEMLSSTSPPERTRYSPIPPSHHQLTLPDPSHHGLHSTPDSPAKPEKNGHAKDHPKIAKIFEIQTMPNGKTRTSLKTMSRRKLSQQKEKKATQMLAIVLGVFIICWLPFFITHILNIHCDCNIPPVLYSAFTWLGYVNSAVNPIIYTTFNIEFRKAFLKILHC
Chain of D(3) dopamine receptor (P35462 whole entry): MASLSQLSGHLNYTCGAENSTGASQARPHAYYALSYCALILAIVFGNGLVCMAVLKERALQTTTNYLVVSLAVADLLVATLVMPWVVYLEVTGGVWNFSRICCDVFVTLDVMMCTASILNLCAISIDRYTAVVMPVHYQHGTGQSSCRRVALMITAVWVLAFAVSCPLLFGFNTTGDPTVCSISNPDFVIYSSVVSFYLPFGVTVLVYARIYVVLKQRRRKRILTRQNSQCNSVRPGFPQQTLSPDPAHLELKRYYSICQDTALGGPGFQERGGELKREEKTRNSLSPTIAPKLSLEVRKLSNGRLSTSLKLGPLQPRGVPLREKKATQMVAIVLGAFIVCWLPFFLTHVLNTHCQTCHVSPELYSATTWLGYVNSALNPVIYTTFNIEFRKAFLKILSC
Chain of Sodium-dependent serotonin transporter (P31645 whole entry): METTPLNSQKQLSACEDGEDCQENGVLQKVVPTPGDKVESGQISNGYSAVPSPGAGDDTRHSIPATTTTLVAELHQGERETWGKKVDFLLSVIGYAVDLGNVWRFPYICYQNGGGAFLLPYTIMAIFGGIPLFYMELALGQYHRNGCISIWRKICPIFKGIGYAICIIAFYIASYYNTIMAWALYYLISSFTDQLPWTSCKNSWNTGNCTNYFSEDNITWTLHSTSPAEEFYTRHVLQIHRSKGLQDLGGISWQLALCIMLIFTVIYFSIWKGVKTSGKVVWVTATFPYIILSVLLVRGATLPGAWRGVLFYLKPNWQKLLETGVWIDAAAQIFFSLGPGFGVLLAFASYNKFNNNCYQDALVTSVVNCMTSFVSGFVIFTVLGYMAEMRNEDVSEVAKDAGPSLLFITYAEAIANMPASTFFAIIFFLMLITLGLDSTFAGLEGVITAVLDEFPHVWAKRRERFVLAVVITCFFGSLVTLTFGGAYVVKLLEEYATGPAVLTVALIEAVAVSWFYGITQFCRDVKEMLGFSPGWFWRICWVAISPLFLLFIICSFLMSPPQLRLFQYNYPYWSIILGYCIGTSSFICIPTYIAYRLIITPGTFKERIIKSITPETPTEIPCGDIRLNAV

A word on the ED50: it is the dose at which the effect has come halfway, by size or by number of responders. As for `O=C1Cc2cc(CCN3CCN(c4nsc5ccccc45)CC3)c(Cl)cc2N1` [ZIPRASIDONE], the results for the Activity in [1], in assay [2] and in assay [3] were 13%, 98% and 311%, respectively. Also, in assay [4], the 50% effect level (ED50) was put at a dose of 1.2 µmol/kg.

`CN(C)CCCC1(c2ccc(F)cc2)OCc2cc(C#N)ccc21` (centres undefined) [CITALOPRAM]: the Activity came out at 69% in assay [5], 101% in assay [6] and 50% in [7]. Moreover, the ED50 entry in assay [4] is “inactive”.

By inhibition is commonly meant how much of the control response was suppressed. For the compound `CCCN1CCC(c2coc3ccccc23)CC1`, the Activity in [8] is 75%; in [9], 35%; in assay [12], 84%. Moreover, the inhibition in assay [10] was found to be 49%; in [11], 34%; in assay [17] it was 28%; in assay [18], 26%. The Ki in [13] amounted to 0.827 µM; in [14], 0.803 µM; in assay [15], 0.092 µM; in assay [16] it was 2.72 µM.

For `CCCN1CCC(c2noc3cc(F)ccc23)CC1`, the inhibition is 17% in [10], 15% in assay [11], 83% in assay [17] and 37% in assay [18]. Also, the Ratio Ki(app) in assay [19] is 5.7. Besides, the Ki came out at 29.8 µM in assay [13], 0.034 µM in [14], 2.23 µM in [15] and 0.194 µM in assay [16]. The figures for the Activity in assay [20], in assay [21] and in assay [22] were 350%, 111% and 8.3%, respectively. This compound also gave an ED50 in assay [4] of 4 µmol/kg.

`CCCN1CC=C(c2c[nH]c3ccc(Cl)cc23)CC1`: the Activity in [23] turned out to be 80 nM; in [24] it was 260 nM.
